In PubChem BioAssay AID256 (DTP/NCI, 2004):
“And” between values parts separate entries of the source, which are not always exact repeats. Equal values may be shown once. Inconclusive results and toxic doses are left out.

Tested on: CD2F1 mice, L1210 leukemia ip, survival T/C
Experiment: NCI In Vivo Anticancer Drug Screen. Data for tumor model L1210 Leukemia (intraperitoneal) in CD2F1 (CDF1) mice
Details: higher = longer survival
Procedure, shortened: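 Compound-dosed mice with transplantable tumor versus matched vehicle controls; endpoint ratio T/C reported.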

[1] = endpoint: mean survival time, dose: 100.0 mg/kg/injection, schedule: Q01DX009 (ip), vehicle: other
[2] = endpoint: mean survival time, dose: 50.0 mg/kg/injection, schedule: Q01DX009 (ip), vehicle: Klucel (hydroxypropylcellulose) (HPC)
[3] = endpoint: mean survival time, dose: 100.0 mg/kg/injection, schedule: Q01DX009 (ip), vehicle: Klucel (hydroxypropylcellulose) (HPC)
[4] = endpoint: mean survival time, dose: 100.0 mg/kg/injection, schedule: Q04DX003 (ip), vehicle: saline
[5] = endpoint: mean survival time, dose: 100.0 mg/kg/injection, schedule: Q04DX002 (ip), vehicle: saline with Tween-80
[6] = endpoint: mean survival time, dose: 100.0 mg/kg/injection, schedule: Q04DX003 (ip), vehicle: saline with Tween-80
[7] = endpoint: mean survival time, dose: 200.0 mg/kg/injection, schedule: Q04DX003 (ip), vehicle: saline with Tween-80
[8] = endpoint: mean survival time, dose: 400.0 mg/kg/injection, schedule: Q04DX003 (ip), vehicle: saline with Tween-80
[9] = endpoint: mean survival time, dose: 100.0 mg/kg/injection, schedule: Q01DX009 (ip), vehicle: saline with Tween-80
[10] = endpoint: mean survival time, dose: 200.0 mg/kg/injection, schedule: Q01DX009 (ip), vehicle: saline with Tween-80
[11] = endpoint: mean survival time, dose: 400.0 mg/kg/injection, schedule: Q01DX009 (ip), vehicle: saline with Tween-80
[12] = endpoint: mean survival time, dose: 25.0 mg/kg/injection, schedule: Q04DX002 (ip), vehicle: saline with Tween-80
[13] = endpoint: mean survival time, dose: 50.0 mg/kg/injection, schedule: Q04DX002 (ip), vehicle: saline with Tween-80
[14] = endpoint: mean survival time, dose: 100.0 mg/kg/injection, schedule: Q01DX001 (ip), vehicle: saline with Tween-80
[15] = endpoint: mean survival time, dose: 200.0 mg/kg/injection, schedule: Q01DX001 (ip), vehicle: saline with Tween-80
[16] = endpoint: mean survival time, dose: 400.0 mg/kg/injection, schedule: Q01DX001 (ip), vehicle: saline with Tween-80
[17] = endpoint: mean survival time, dose: 12.5 mg/kg/injection, schedule: Q01DX009 (ip), vehicle: saline with Tween-80
[18] = endpoint: mean survival time, dose: 25.0 mg/kg/injection, schedule: Q01DX009 (ip), vehicle: saline with Tween-80

C=CCN(CC=C)C(=S)Nc1cccc(Br)c1
T/C [1]: 96 % of control | T/C (endpoint: mean survival time, dose: 200.0 mg/kg/injection, schedule: Q01DX009 (ip), vehicle: other): 95 % of control | T/C (endpoint: mean survival time, dose: 400.0 mg/kg/injection, schedule: Q01DX009 (ip), vehicle: other): 101 % of control

C[N+](C)(C)c1cc2c(nn1)Nc1ccccc1S2
T/C (endpoint: mean survival time, dose: 3.12 mg/kg/injection, schedule: Q01DX009 (ip), vehicle: Klucel (hydroxypropylcellulose) (HPC)): 97 % of control and 100 % of control | T/C (endpoint: mean survival time, dose: 6.25 mg/kg/injection, schedule: Q01DX009 (ip), vehicle: Klucel (hydroxypropylcellulose) (HPC)): 102 % of control and 103 % of control | T/C (endpoint: mean survival time, dose: 12.5 mg/kg/injection, schedule: Q01DX009 (ip), vehicle: Klucel (hydroxypropylcellulose) (HPC)): 87 % of control and 100 % of control | T/C (endpoint: mean survival time, dose: 25.0 mg/kg/injection, schedule: Q01DX009 (ip), vehicle: Klucel (hydroxypropylcellulose) (HPC)): 102 % of control and 103 % of control | T/C (endpoint: mean survival time, dose: 25.0 mg/kg/injection, schedule: Q04DX003 (ip), vehicle: saline): 111 % of control | T/C [2]: 94 % of control and 100 % of control | T/C (endpoint: mean survival time, dose: 50.0 mg/kg/injection, schedule: Q04DX003 (ip), vehicle: saline): 117 % of control | T/C [3]: 96 % of control and 103 % of control | T/C [4]: 109 % of control

O=C1OC(/C=C/c2ccccc2)=NC/1=C\c1ccccc1Cl
T/C [5]: 103 % of control | T/C (endpoint: mean survival time, dose: 200.0 mg/kg/injection, schedule: Q04DX002 (ip), vehicle: saline with Tween-80): 103 % of control | T/C (endpoint: mean survival time, dose: 400.0 mg/kg/injection, schedule: Q04DX002 (ip), vehicle: saline with Tween-80): 91 % of control

OC(c1ccccc1)(c1ccccc1)c1ccccc1
T/C [6]: 101 % of control | T/C [7]: 98 % of control | T/C [8]: 98 % of control

O=C(/C(Br)=C/c1ccccc1)c1ccccc1
T/C (endpoint: mean survival time, dose: 100.0 mg/kg/injection, schedule: Q04DX003 (ip), vehicle: other): 103 % of control | T/C (endpoint: mean survival time, dose: 200.0 mg/kg/injection, schedule: Q04DX003 (ip), vehicle: other): 105 % of control

CC(C)(C)OOCC1CO1 (centres undefined)
T/C [9]: 92 % of control | T/C [6]: 98 % of control | T/C [10]: 94 % of control | T/C [7]: 105 % of control | T/C [11]: 98 % of control | T/C [8]: 96 % of control

C[P+]1(c2ccccc2)CCC(N)=C(C#N)C1 (centres undefined)
T/C [12]: 97 % of control | T/C [13]: 101 % of control | T/C [5]: 101 % of control

CNC(=O)OCc1nc(SC)n(C)c1COC(=O)NC
T/C (endpoint: median survival time, dose: 12.5 mg/kg/injection, schedule: Q01DX005 (ip), vehicle: saline): 103 % of control | T/C (endpoint: median survival time, dose: 12.5 mg/kg/injection, schedule: Q01DX005 (ip), vehicle: suspension in saline): 111 % of control | T/C (endpoint: median survival time, dose: 25.0 mg/kg/injection, schedule: Q01DX005 (ip), vehicle: saline): 111 % of control | T/C (endpoint: median survival time, dose: 25.0 mg/kg/injection, schedule: Q01DX005 (ip), vehicle: suspension in saline): 114 % of control | T/C (endpoint: median survival time, dose: 65.0 mg/kg/injection, schedule: Q01DX005 (ip), vehicle: saline): 175 % of control | T/C (endpoint: median survival time, dose: 200.0 mg/kg/injection, schedule: Q01DX005 (ip), vehicle: suspension in saline): 87 % of control

C1=C(c2ccccc2)N(c2ccccc2)N=C(c2ccccc2)C1
T/C [14]: 94 % of control | T/C [15]: 94 % of control | T/C [16]: 98 % of control

C=CCC(c1ccccc1)(c1ccccc1)c1ccccc1
T/C (endpoint: mean survival time, dose: 75.0 mg/kg/injection, schedule: Q01DX001 (ip), vehicle: saline): 93 % of control | T/C (endpoint: mean survival time, dose: 150.0 mg/kg/injection, schedule: Q01DX001 (ip), vehicle: saline): 95 % of control | T/C (endpoint: mean survival time, dose: 300.0 mg/kg/injection, schedule: Q01DX001 (ip), vehicle: saline): 97 % of control

CC12CCC(C/C1=C\C#N)C(C)(C)O2 (centres undefined)
T/C [2]: 97 % of control | T/C [3]: 94 % of control | T/C (endpoint: mean survival time, dose: 200.0 mg/kg/injection, schedule: Q01DX009 (ip), vehicle: Klucel (hydroxypropylcellulose) (HPC)): 105 % of control

CCCCCCCC/C=C/CCCCCCCC(=O)NCCCCCCNC(=O)CCCCCCC/C=C/CCCCCCCC
T/C (endpoint: mean survival time, dose: 100.0 mg/kg/injection, schedule: Q01DX001 (ip), vehicle: other): 94 % of control | T/C (endpoint: mean survival time, dose: 200.0 mg/kg/injection, schedule: Q01DX001 (ip), vehicle: other): 97 % of control | T/C (endpoint: mean survival time, dose: 400.0 mg/kg/injection, schedule: Q01DX001 (ip), vehicle: other): 102 % of control

CSc1nccc2ccccc12
T/C (endpoint: mean survival time, dose: 12.5 mg/kg/injection, schedule: Q01DX009 (ip), vehicle: other): 106 % of control | T/C (endpoint: mean survival time, dose: 25.0 mg/kg/injection, schedule: Q01DX009 (ip), vehicle: other): 106 % of control | T/C (endpoint: mean survival time, dose: 50.0 mg/kg/injection, schedule: Q01DX009 (ip), vehicle: other): 106 % of control | T/C [1]: 106 % of control

CC(C)COC(=O)CN(CC(=O)OCC(C)C)c1ccccc1
T/C [9]: 96 % of control | T/C [6]: 110 % of control | T/C [10]: 98 % of control | T/C [7]: 97 % of control | T/C [11]: 103 % of control | T/C [8]: 97 % of control

NC1CCCCC1N.O=S(=O)([O-])CCCN1CCOCC1.O=S(=O)([O-])CCCN1CCOCC1.[Pt+4]
T/C (endpoint: median survival time, dose: 3.12 mg/kg/injection, schedule: Q04DX003 (ip), vehicle: saline with Tween-80): 361 % of control | T/C (endpoint: median survival time, dose: 6.25 mg/kg/injection, schedule: Q04DX003 (ip), vehicle: saline with Tween-80): 174 % of control and 361 % of control | T/C (endpoint: median survival time, dose: 12.5 mg/kg/injection, schedule: Q04DX003 (ip), vehicle: saline with Tween-80): 195 % of control and 196 % of control | T/C (endpoint: median survival time, dose: 25.0 mg/kg/injection, schedule: Q04DX003 (ip), vehicle: saline with Tween-80): 341 % of control and 361 % of control | T/C (endpoint: median survival time, dose: 50.0 mg/kg/injection, schedule: Q04DX003 (ip), vehicle: saline with Tween-80): 228 % of control and 365 % of control

COc1ccc2c(c1O)C1CCCCC13CCN(C)C3C2 (centres undefined)
T/C [12]: 96 % of control | T/C [13]: 96 % of control | T/C [14]: 110 % of control | T/C [5]: 93 % of control and 97 % of control | T/C [15]: 98 % of control | T/C [16]: 100 % of control

NCCN
T/C [14]: 106 % of control | T/C [16]: 97 % of control

CN1CCCN(C)C1c1ccc(Cl)cc1
T/C (endpoint: mean survival time, dose: 6.25 mg/kg/injection, schedule: Q01DX009 (ip), vehicle: saline with Tween-80): 98 % of control | T/C [17]: 100 % of control | T/C [18]: 94 % of control

CC1(O)C=CC(=O)C=C1
T/C (endpoint: median survival time, dose: 6.25 mg/kg/injection, schedule: Q01DX009 (ip), vehicle: water): 91 % of control | T/C (endpoint: median survival time, dose: 12.5 mg/kg/injection, schedule: Q01DX009 (ip), vehicle: water): 103 % of control | T/C (endpoint: median survival time, dose: 25.0 mg/kg/injection, schedule: Q01DX009 (ip), vehicle: water): 122 % of control | T/C (endpoint: median survival time, dose: 50.0 mg/kg/injection, schedule: Q01DX009 (ip), vehicle: water): 91 % of control

CN1CCCC1CN1c2ccccc2Sc2ccccc21 (centres undefined)
T/C [4]: 102 % of control

Nc1nc(=O)n2ccn(C3OC(CO)C(O)C3O)c2n1 (centres undefined)
T/C (endpoint: mean survival time, dose: 12.5 mg/kg/injection, schedule: Q01DX005 (ip), vehicle: distilled water + Tween-80): 103 % of control | T/C (endpoint: mean survival time, dose: 25.0 mg/kg/injection, schedule: Q01DX005 (ip), vehicle: distilled water + Tween-80): 100 % of control | T/C (endpoint: mean survival time, dose: 50.0 mg/kg/injection, schedule: Q01DX005 (ip), vehicle: distilled water + Tween-80): 100 % of control | T/C (endpoint: mean survival time, dose: 100.0 mg/kg/injection, schedule: Q01DX005 (ip), vehicle: distilled water + Tween-80): 100 % of control | T/C (endpoint: mean survival time, dose: 200.0 mg/kg/injection, schedule: Q01DX005 (ip), vehicle: distilled water + Tween-80): 103 % of control

CC(=O)OC1C=C2CCC3C(CCC4(C)C(OC(C)=O)CCC34)C2(C)CC1 (centres undefined)
T/C (endpoint: mean survival time, dose: 12.5 mg/kg/injection, schedule: Q04DX003 (ip), vehicle: Klucel (hydroxypropylcellulose) (HPC)): 106 % of control | T/C (endpoint: mean survival time, dose: 25.0 mg/kg/injection, schedule: Q04DX003 (ip), vehicle: Klucel (hydroxypropylcellulose) (HPC)): 103 % of control | T/C (endpoint: mean survival time, dose: 50.0 mg/kg/injection, schedule: Q04DX003 (ip), vehicle: Klucel (hydroxypropylcellulose) (HPC)): 106 % of control

CCOC(=O)C(C)C(O)c1ccc(OC)cc1 (centres undefined)
T/C [17]: 101 % of control | T/C [18]: 101 % of control | T/C (endpoint: mean survival time, dose: 50.0 mg/kg/injection, schedule: Q01DX009 (ip), vehicle: saline with Tween-80): 93 % of control
